Data on three compounds can be found in patent US20120142770A1, “PHARMACEUTICAL COMPOSITIONS OF HDAC INHIBITORS AND CHELATABLE METAL COMPOUNDS, AND METAL-HDAC INHIBITOR CHELATE COMPLEXES” (Merck Sharp & Dohme Corp, priority 2006, published 2012).

For one data set, the system named is dogs. The conditions noted are these: dog, in vivo; cited from earlier work.
Another data set concerns rats. The conditions noted are these: rat, in vivo; cited from earlier work.
Another data set has as its system patients with cancer. The conditions noted are these: cited from earlier work.
The nature of a further data set: in vivo. The conditions noted are these: female, CD1 nu/nu, mouse, ip.
A short description of data set [1]: Solubility of raw material (Table 1). Format: physicochemical. From the text:
Table 1 summarizes the physical properties of the raw materials in the capsule.

A further data set relates to all animal species. The conditions noted are these: cited from earlier work.
For data set [2] the following is noted: in vivo; cited from earlier work.

Structures are written as SMILES. Converted amounts (≈) assume the structure as drawn. Where two headings read alike, the source gives them in different places.

Experimental for in vivo: To test whether the maximum tolerated dose (MTD) of vorinostat in mice can be increased with zinc supplementation, Mice (CD1 nu/nu female, 6-8 weeks old, Charles River Laboratories) are administered vehicle, 150 mg/kg (MTD) or 300 mg/kg vorinostat in vehicle (Table 11). Mice are given 0.5, 1, or 5 molar equivalents (relative to vorinostat) of zinc chloride. This corresponds to ZnCl2 doses of 38.5, 77, and 385 mg/kg for the 150 mg/kg vorinostat group.
Body weight and survival are monitored as indications of toxicity. Doses resulting in a group average body weight loss of more than 20% average will be considered non-tolerated. Likewise, doses resulting in the treatment-related death of more than 2 mice per group will be considered non-tolerated.

In the case of `O=C(CCCCCCC(=O)Nc1ccccc1)NO` [Suberoylanilide hydroxamic acid (SAHA), N-hydroxy-N′-phenyloctanediamide], the Preclinical toxicity result in the data set on dogs is on record as “gastrointestinal toxicity (mucosal atrophy, acute inflammation, necrosis, multiple lesions), dehydration, electrolyte loss, testicular atrophy”; in the data set with rats it was “thrombocytopenia”; with all animal species, “weight loss or inappetence, immune suppression (leucopenia, lymphopenia, thymic atrophy)”. Further, the “Clinical adverse experiences or side effects” value in the data set with patients with cancer is recorded as “diarrhea, fatigue, nausea, thrombocytopenia, anorexia, dysgeusia, weight decrease, muscle spasms, alopecia, anemia, blood creatinine increase, vomiting, chills”. In “in vivo”, this compound gave an MTD of 150 mg/kg. Moreover, the solubility was 11.3 mg/mL (≈ 42.8 mM) in data set [1] (2% CIP100 aqueous solution, aqueous with cosolvent or surfactant or cyclodextrin, 2% CIP100 aqueous soln., read-out: Solubility in 2% CIP100 aqueous soln.); 0.085 mg/mL (≈ 0.322 mM) in data set [1] (2% SD-20 aqueous solution, aqueous with cosolvent or surfactant or cyclodextrin, 2% SD-20 aqueous soln., read-out: Solubility in 2% SD-20 aqueous soln.); less than 0.1 mg/mL in data set [1] (in water, read-out: Solubility in Water); 42 mg/mL (≈ 159 mM) in data set [1] (organic solvent or mixture, in methanol, read-out: Solubility in Methanol).
As to `CC(=O)NO` [Lithostat, acetohydroxamic acid], the side effects result in data set [2] is “nausea, vomiting, anorexia, fatigue, malaise, reticulocytosis, anemia, thrombocytopenia, leukopenia and headache”.
Take `CC(=O)N(O)CCCCCNC(=O)CCC(=O)N(O)CCCCCNC(=O)CCC(=O)N(O)CCCCCN` [Desferrioxamine]: in data set [2], the side effects entry is “fatigue, bone marrow atrophy, thymic atrophy and neutropenia”.
